Data set [1] can be described thus: log P determination by HPLC (EEC Directive 79/831 Annex V.A8). It is filed as physicochemical. The protocol: The measurements were carried out using an Agilent 1100 LC system with a 50*4.6 Zorbax Eclipse C18 1.8 μm column (oven temperature 55° C., flow rate 2.0 ml/min).
The following mobile phases were used:
Mobile phase A: acetonitrile+1000 μl of formic acid/l
Mobile phase B: Millipore water+900 μl of formic acid/l

The subject of data set [2] is larvae of the mustard beetle (Phaedon cochleariae). Description: Phaedon test (PHAECO spray treatment). Particulars: Phaedon cochleariae, in Brassica rapa, foliar, read-out: effect in % (beetle larvae killed).
The subject of data set [3] is caterpillars of the armyworm (Spodoptera frugiperda). Description: Spodoptera frugiperda test (SPODFR spray treatment). It is filed as in vivo. Particulars: Spodoptera frugiperda, foliar, read-out: effect in % (caterpillars killed). From the text: (§1) Solvent: 78.0 parts by weight of acetone
For data set [4], the system named is green peach aphid (Myzus persicae). Description: Myzus test (MYZUPE spray treatment). It is filed as in vivo. The settings on record: Myzus persicae, foliar, read-out: effect in % (aphids killed).
Excerpt: Solvent: 78 parts by weight of acetone
as §1

[5] abbreviates: reversed-phase HPLC, Zorbax Eclipse C18 column, by HPLC according to EEC Directive 79/831 Annex V.A8, read-out: log P.
[6] abbreviates: application rate 100 g/ha, maize leaf discs.
[7] abbreviates: application rate 100 g/ha, Chinese cabbage leaf discs.
The mark [8] stands for this setting: reversed-phase HPLC, Zorbax Eclipse C18 column, determined by HPLC according to EEC Directive 79/831 Annex V.A8, read-out: log P.

Read-outs that look alike come from different tables or passages of the source.

Take `CNC(=O)c1cc(Cl)cc(Cl)c1NC(=O)c1cc(Cn2nnc(C(F)(F)F)n2)nn1-c1ncccc1Cl` [Example 54]: the chromatographic logP in data set [1] (log P) came to 2.93. Besides, the pest or weed control at 100 g/ha in data set [2], in data set [3] (in Zea mays) and in data set [4] (in Brassica rapa) was not below 80% each time.
As for `CNC(=O)c1cc(Br)cc(C)c1NC(=O)c1cc(Cn2nnc(C(F)F)n2)nn1-c1ncccc1Cl` [Example 296], the chromatographic logP in data set [1] (log P) is 2.61. Also, the pest or weed control at 100 g/ha in data set [2], in data set [3] (in Zea mays) and in data set [4] (in Brassica rapa) was not below 80% each time.
`Cc1cc(C#N)cc(C(=O)NCC2CC2)c1NC(=O)c1cc(Cn2nnc(C(F)F)n2)nn1-c1ncccc1Cl` [Example 269]: the chromatographic logP in data set [1] (log P) was found to be 2.66. In addition, the pest or weed control at 100 g/ha in data set [2], in data set [3] (in Zea mays) and in data set [4] (in Brassica rapa) was not below 80% in each case.
Turning to `CCNC(=O)c1cc(C#N)cc(C)c1NC(=O)c1cc(Cn2nnc(C(F)(F)F)n2)nn1-c1ccccc1Cl` [Example 342], the chromatographic logP in data set [1] (setting [5]) came to 3.36. Further, the pest or weed control at 100 g/ha in data set [2], in data set [3] (setting [6]) and in data set [4] (setting [7]) was not below 80% each time.
In data set [1] (log P), `Cc1cc(C#N)cc(C(=O)NC(C)C2CC2)c1NC(=O)c1cc(Cn2nnc(C(F)(F)C(F)(F)F)n2)nn1-c1ncccc1Cl` (centres unmarked) [Example 134] showed a chromatographic logP of 3.84. The pest or weed control at 100 g/ha in data set [2], in data set [3] (in Zea mays) and in data set [4] (in Brassica rapa) was not below 80% each time.
As to `Cc1cc(Br)cc(C(=O)NC(C)(C)C)c1NC(=O)c1cc(Cn2nnc(C(F)(F)C(F)(F)F)n2)nn1-c1ncccc1Cl` [Example 219], the chromatographic logP in data set [1] (log P) worked out at 4.36. Moreover, the pest or weed control at 100 g/ha in data set [2], in data set [3] (in Zea mays) and in data set [4] (in Brassica rapa) was not below 80% in each case.
In data set [1] (log P), `CNC(=O)c1cc(Cl)cc(C)c1NC(=O)c1cc(Cn2nnc(C(F)F)n2)nn1-c1ncccc1Cl` [Example 255] displayed a chromatographic logP of 2.46. In addition, the pest or weed control at 100 g/ha in data set [2], in data set [3] (in Zea mays) and in data set [4] (in Brassica rapa) was not below 80% in each case.
`Cc1cc(C#N)cc(C(=O)NC(C)C2CC2)c1NC(=O)c1cc(Cn2nnnc2C(F)(F)C(F)(F)F)nn1-c1ncccc1Cl` (centres unmarked) [Example 203] came in with a chromatographic logP in data set [1] (log P) of 3.48. Further, the pest or weed control at 100 g/ha in data set [2], in data set [3] (in Zea mays) and in data set [4] (in Brassica rapa) was not below 80% each time.
As to `CSC[C@H](C)NC(=O)c1cc(C#N)cc(C)c1NC(=O)c1cc(Cn2nnc(C(F)(C(F)(F)F)C(F)(F)F)n2)nn1-c1ncccc1Cl` [Example 376], the chromatographic logP in data set [1] (setting [5]) was found to be 3.96. For the same compound, the pest or weed control at 100 g/ha in data set [2], in data set [3] (setting [6]) and in data set [4] (setting [7]) was not below 80% throughout.
Regarding `Cc1cc(Cl)cc(C(=O)NC(C)(C)C)c1NC(=O)c1cc(Cn2nnnc2C(F)(F)F)nn1-c1ncccc1Br` [Example 484], in data set [1] (setting [8]), the chromatographic logP was 3.52. Also, the pest or weed control at 100 g/ha in data set [2], in data set [3] (setting [6]) and in data set [4] (setting [7]) was not below 80% each time.
Regarding `CNC(=O)c1cc(C#N)cc(C)c1NC(=O)c1cc(C(C)n2nnc(C(F)(F)F)n2)nn1-c1ncccc1Cl` (centres unmarked) [Example 542], the chromatographic logP in data set [1] (log P) turned out to be 2.86. The pest or weed control at 100 g/ha in data set [2], in data set [3] (in Zea mays) and in data set [4] (in Brassica rapa) was not below 80% in each case.
`Cc1cc(Cl)cc(C(=O)NC2CC2)c1NC(=O)c1cc(Cn2nnnc2C(F)F)nn1-c1ncccc1Cl` [Example 461] came in with a chromatographic logP in data set [1] (log P) of 2.5. Besides, the pest or weed control at 100 g/ha in data set [2] and in data set [3] (in Zea mays) was not below 80% each time. In addition, in data set [4] (in Brassica rapa), the pest or weed control at 20 g/ha is not below 80%.
Take `Cc1cc(Br)cc(C(=O)NC2CC2)c1NC(=O)c1cc(Cn2nnc(C(F)F)n2)nn1-c1ncccc1Cl` [Example 298]: the chromatographic logP in data set [1] (log P) stood at 2.85. Further, the pest or weed control at 100 g/ha in data set [2], in data set [3] (in Zea mays) and in data set [4] (in Brassica rapa) was not below 80% in each case.
Turning to `Cc1cc(Cl)cc(C(=O)NC2CC2)c1NC(=O)c1cc(Cn2nnnc2C(F)(F)F)nn1-c1ncccc1Cl` [Example 163], in data set [1] (log P), the chromatographic logP is 2.89. Further, the pest or weed control at 100 g/ha in data set [2], in data set [3] (in Zea mays) and in data set [4] (in Brassica rapa) was not below 80% throughout.
With `Cc1cc(Cl)cc(C(=O)NC(C)C)c1NC(=O)c1cc(Cn2nnnc2C(F)(F)C(F)(F)F)nn1-c1ncccc1Br` [Example 513], the chromatographic logP in data set [1] (setting [8]) amounted to 3.54. The pest or weed control at 100 g/ha in data set [2], in data set [3] (setting [6]) and in data set [4] (setting [7]) was not below 80% each time.
Consider `Cc1cc(C#N)cc(C(=O)NC2CC2)c1NC(=O)c1cc(Cn2nnc(C(F)(F)F)n2)nn1-c1ccccc1Cl` [Example 442], for which, in data set [1] (setting [8]), the chromatographic logP was 3.29. The pest or weed control at 100 g/ha in data set [2], in data set [3] (setting [6]) and in data set [4] (setting [7]) was not below 80% each time.
In the case of `Cc1cc(Cl)cc(C(N)=O)c1NC(=O)c1cc(Cn2nnc(C(F)F)n2)nn1-c1ncccc1Cl` [Example 304], the chromatographic logP in data set [1] (log P) came to 2.32. For the same compound, the pest or weed control at 100 g/ha in data set [2], in data set [3] (in Zea mays) and in data set [4] (in Brassica rapa) was not below 80% throughout.
On to `Cc1cc(Cl)cc(C(=O)NC2CC2)c1NC(=O)c1cc(Cn2nnnc2C(F)(F)F)nn1-c1ncccc1Br` [Example 487], for which the chromatographic logP in data set [1] (setting [8]) came to 2.9. For the same compound, the pest or weed control at 100 g/ha in data set [2], in data set [3] (setting [6]) and in data set [4] (setting [7]) was not below 80% in each case.
In the case of `COCCNC(=O)c1cc(C#N)cc(C)c1NC(=O)c1cc(Cn2nnc(C(F)(F)F)n2)nn1-c1ccccc1Cl` [Example 435], the chromatographic logP in data set [1] (setting [8]) came to 3.18. In addition, the pest or weed control at 100 g/ha in data set [2], in data set [3] (setting [6]) and in data set [4] (setting [7]) was not below 80% each time.
For the compound `CCNC(=O)c1cc(I)cc(C)c1NC(=O)c1cc(Cn2nnnc2C(F)(F)F)nn1-c1ncccc1Br` [Example 503], the chromatographic logP in data set [1] (setting [8]) was 3.16. The pest or weed control at 100 g/ha in data set [2], in data set [3] (setting [6]) and in data set [4] (setting [7]) was not below 80% in each case.
In turn, `CC(C)(C)NC(=O)c1cc(Cl)cc(Cl)c1NC(=O)c1cc(Cn2nnc(C(F)(F)F)n2)nn1-c1ncccc1Cl` [Example 60] yielded a chromatographic logP in data set [1] (log P) of 3.78. In addition, the pest or weed control at 100 g/ha in data set [2], in data set [3] (in Zea mays) and in data set [4] (in Brassica rapa) was not below 80% each time.
Regarding `Cc1cc(Cl)cc(C(N)=O)c1NC(=O)c1cc(Cn2nnnc2C(F)(F)F)nn1-c1ncccc1Br` [Example 481], the chromatographic logP in data set [1] (setting [8]) stood at 2.43. Moreover, the pest or weed control at 100 g/ha in data set [2], in data set [3] (setting [6]) and in data set [4] (setting [7]) was not below 80% each time.
Turning to `CCNC(=O)c1cc(Br)cc(C)c1NC(=O)c1cc(Cn2nnnc2C(F)(F)F)nn1-c1ncccc1Br` [Example 505], the chromatographic logP in data set [1] (setting [8]) was 3.02. Moreover, the pest or weed control at 100 g/ha in data set [2], in data set [3] (setting [6]) and in data set [4] (setting [7]) was not below 80% in each case.
As to `Cc1cc(Br)cc(C(=O)NC(C)(C)C)c1NC(=O)c1cc(Cn2nnc(C(F)(F)F)n2)nn1-c1ncccc1Cl` [Example 114], the chromatographic logP in data set [1] (log P) came out at 4. In addition, the pest or weed control at 100 g/ha in data set [2], in data set [3] (in Zea mays) and in data set [4] (in Brassica rapa) was not below 80% in each case.
For the compound `N#CCNC(=O)c1cc(Cl)cc(Cl)c1NC(=O)c1cc(Cn2nnc(C(F)F)n2)nn1-c1ncccc1Cl` [Example 290], the chromatographic logP in data set [1] (log P) was 2.48. For the same compound, the pest or weed control at 100 g/ha in data set [2], in data set [3] (in Zea mays) and in data set [4] (in Brassica rapa) was not below 80% throughout.
As to `Cc1cc(I)cc(C(=O)NCC#N)c1NC(=O)c1cc(Cn2nnc(C(F)(F)F)n2)nn1-c1ncccc1Cl` [Example 70], the chromatographic logP in data set [1] (log P) came out at 3.14. In addition, the pest or weed control at 100 g/ha in data set [2], in data set [3] (in Zea mays) and in data set [4] (in Brassica rapa) was not below 80% throughout.
With `CCNC(=O)c1cc(C#N)cc(C)c1NC(=O)c1cc(Cn2nnc(C(F)(F)F)n2)nn1-c1ncccc1Br` [Example 322], in data set [1] (setting [5]), the chromatographic logP was 2.88. In addition, the pest or weed control at 100 g/ha in data set [2], in data set [3] (setting [6]) and in data set [4] (setting [7]) was not below 80% in each case.
Take `Cc1cc(Br)cc(C(=O)NC(C)(C)C)c1NC(=O)c1cc(Cn2nnnc2C(F)(F)F)nn1-c1ncccc1Cl` [Example 182]: in data set [1] (log P), the chromatographic logP stood at 3.62. For the same compound, the pest or weed control at 100 g/ha in data set [2], in data set [3] (in Zea mays) and in data set [4] (in Brassica rapa) was not below 80% in each case.
In the case of `CC(NC(=O)c1cc(Cl)cc(Cl)c1NC(=O)c1cc(Cn2nnnc2C(F)F)nn1-c1ncccc1Cl)C1CC1` (centres unmarked) [Example 465], the chromatographic logP in data set [1] (log P) is 3.02. The pest or weed control at 100 g/ha in data set [2], in data set [3] (in Zea mays) and in data set [4] (in Brassica rapa) was not below 80% throughout.

(Values after patent US8324390B2, “Tetrazole-substituted anthranilamides as pesticides” (Bayer CropScience AG, priority 2008, dated 2012).)
